Test system: human hepatoma Huh-7 cell line harboring a HCV replicon
Test: HCV replicon assay (inhibition of viral replication, luciferase)
Format: cell-based
Settings: Hepatitis C virus, 72 h; 2 μM; Huh-7 HCV replicon cells, 3 days incubation; inhibition of viral replication; read-out: % inhibition at 2 μM
Procedure: The anti-HCV activity of the compounds of this invention was tested in a human hepatoma Huh-7 cell line harboring a HCV replicon. The assay comprised the following steps:
Step 1: Compound Preparation and Serial Dilution.
Serial dilution was performed in 100% DMSO in a 384-well plate. A solution containing a compound at 225-fold concentration of the starting final serial dilution concentration was prepared in 100% DMSO and 15 uL added to the pre-specified wells in column 3 or 13 of a polypropylene 384-well plate. The rest of the 384-well plate was filled with 10 uL 100% DMSO except for columns 23 and 24, where 10 uL of 500 uM a HCV protease inhibitor (ITMN-191) in 100% DMSO was added. The HCV protease inhibitor was used a control of 100% inhibition of HCV replication. The plate was then placed on a Biomek FX Workstation to start the serial dilution. The serial dilution was performed for ten cycles of 3-fold dilution from column 3 to 12 or from column 13 to 22.
Step 2: Cell Culture Plate Preparation and Compound Addition
To each well of a black polypropylene 384-well plate, 90 μL of cell media containing 1600 suspended Huh-7 HCV replicon cells was added with a Biotek uFlow Workstation. A volume of 0.4 μL of the compound solution was transferred from the serial dilution plate to the cell culture plate on a Biomek FX Workstation. The DMSO concentration in the final assay condition was 0.44%. The plates were incubated for 3 days at 37° C. with 5% CO2 and 85% humidity.
Step 3: Detection of Cytotoxicity and Inhibition of Viral Replication
a) Assessment of cytotoxicity: The media in the 384-well cell culture plate was aspirated with a Biotek EL405 plate-washer. A volume of 50 μL of a solution containing 400 nM Calcein AM in 100% PBS was added to each well of the plate with a Biotek uFlow Workstation. The plate was incubated for 30 minutes at room temperature before the fluorescence signal ([…]) was measured with a Perkin Elmer Envision Plate Reader.
b) Assessment of inhibition of viral replication: The calcein-PBS solution in the 384-well cell culture plate was aspirated with a Biotek EL405 plate-washer. A volume of 20 μL of Dual-Glo luciferase buffer (Promega, Dual-Glo Luciferase Assay Reagent, cat. #E298B) was added to each well of the plate with a Biotek uFlow Workstation. The plate was incubated for 10 minutes at room temperature. A volume of 20 μL of a solution containing 1:100 mixture of Dual-Glo Stop & Glo substrate(Promega, Dual-Glo Luciferase Assay Reagent, cat. #E313B) and Dual-Glo Stop & Glo buffer (Promega, Dual-Glo Luciferase Assay Reagent, cat. #E314B) was then added to each well of the plate with a Biotek uFlow Workstation. The plate was incubated at room temperature for 10 minutes before the luminescence signal was measured with a Perkin Elmer Envision Plate Reader.
The percent cytotoxicity was determined by calcein AM conversion to fluorescent product. The average fluorescent signal from the DMSO control wells were defined as 100% nontoxic. The individual fluorescent signal from testing compound treated well was divided by the average signal from DMSO control wells and then multiplied by 100% to get the percent viability. The percent anti-HCV replication activity was determined by the luminescence signal from the testing well compared to DMSO controls wells. The background signal was determined by the average luminescence signal from the HCV protease inhibitor treated wells and was subtracted from the signal from the testing wells as well as the DMSO control wells. Following 3-fold serial dilutions, the EC50 and CC50 values were calculated by fitting % inhibition at each concentration to the following equation: % inhibition=100%[(EC50/[l])^b+1]
Where b is Hill's coefficient. See, for reference, Hill, A. V., The Possible Effects of the Aggregation of the Molecules of Hæmoglobin on its Dissociation Curves, J. Physiol. 40: iv-vii. (1910). […]

Compound	inhibition at 2 µM
CC(C)(C)C#Cc1cc(N(C(=O)[C@H]2CC[C@H](C)CC2)C2CCN(C(=O)O[C@@H]3CNC(=O)C3)CC2)c(C(=O)O)s1 [Compound 56, 4-[[2-carboxy-5-(3,3-dimethyl-but-1-ynyl)-thiophen-3-yl]-(4-trans-methyl-cyclohexanecarbonyl)-amino]-piperidine-1-carboxylic acid 5-oxo-pyrrolidin-3-(S)-yl ester]	92.8%
CC(C)(C)C#Cc1cc(N(C(=O)[C@H]2CC[C@H](C)CC2)C2CCN(C(=O)O[C@H]3CCNC3=O)CC2)c(C(=O)O)s1 [Compound 57, 4-[[2-carboxy-5-(3,3-dimethyl-but-1-ynyl)-thiophen-3-yl]-(4-methyl-cyclohexanecarbonyl)-amino]-piperidine-1-carboxylic acid 2-oxo-pyrrolidin-3-(S)-yl ester]	78.2%
C[C@@H](CCNC(=O)O[C@H]1CO[C@H]2OCC[C@H]21)N(c1cc(C#CC(C)(C)C)sc1C(=O)O)C(=O)[C@H]1CC[C@H](C)CC1 [Compound 64, 5-(3,3-Dimethyl-but-1-ynyl)-3-[[3-(hexahydro-furo[2,3-b]furan-3-yloxycarbonylamino)-1-(S)-methyl-propyl]-(trans-4-methyl-cyclohexanecarbonyl)-amino]-thiophene-2-carboxylic acid]	100%
C[C@@H](CCNC(=O)O[C@@H]1CCOC1)N(c1cc(C#CC(C)(C)C)sc1C(=O)O)C(=O)[C@H]1CC[C@H](C)CC1 [Compound 65, 5-(3,3-dimethyl-but-1-ynyl)-3-[[trans-4-methyl-cyclohexanecarbonyl)-[1-(S)-methyl-3-(tetrahydrofuran-3-yloxycarbonylamino)-propyl]-amino]-thiophene-2-carboxylic acid]	99.9%
CC(C)(C)C#Cc1cc(N(C(=O)[C@H]2CC[C@H](C)CC2)C2CCC(NC(=O)O[C@H]3CO[C@H]4OCC[C@H]43)CC2)c(C(=O)O)s1 (stereo partly drawn) [Compound 66, 5-(3,3-Dimethyl-but-ynyl)-3-[[4-(hexahydro-furo[2,3-b]furan-3-yloxycarbonylamino)-cyclohexyl]-(trans-4-methyl-cyclohexanecarbonyl)-amino]-thiophene-2-carboxylic acid]	99.9%
CC(C)(C)C#Cc1cc(N(C(=O)[C@H]2CC[C@H](C)CC2)[C@H]2CCN(C(=O)OC3(C)CCNC3)C2)c(C(=O)O)s1 (stereo partly drawn) [Compound 68, 3-(S)-[[2-Carboxy-5-(3,3-dimethyl-but-1-ynyl)-thiophen-3-yl]-(trans-4-methylcyclohexanecarbonyl)-amino]-pyrrolidine-1-carbocylic-acid-3-methyl-pyrrolidin-3-yl-ester]	98.5%
CC(C)(C)C#Cc1cc(N(C(=O)[C@H]2CC[C@H](C)CC2)[C@H]2CCN(C(=O)OC3(C)CN(C(=O)OC(C)(C)C)C3)C2)c(C(=O)O)s1 [Compound 69, 3-[[2-carboxy-5-(3,3-dimethyl-but-1-ynyl)-thiophen-3-yl]-(trans-4-methyl-cyclohexanecarbonyl)-3-(S)-amino]-pyrrolidine-1-carboxylic acid 1-tert-butoxycarbonyl-3-methyl-azetidin-3-yl ester]	99.5%
CC(C)(C)C#Cc1cc(N(C(=O)[C@H]2CC[C@H](C)CC2)[C@H]2CCN(C(=O)OC3CCS(=O)(=O)C3)C2)c(C(=O)O)s1 (stereo partly drawn) [Compound 70, 3-[[2-carboxy-5-(3,3-dimethyl-but-1-ynyl)-thiophene-3-yl]-(trans-4-methylcyclohexanecarbonyl)-3-(S)-amino]-pyrrolidine-1-carboxylic acid 1,1-dioxo-tetrahydro-1λ^6-thiophene-3-yl ester]	99.1%
CC(C)(C)C#Cc1cc(N(C(=O)[C@H]2CC[C@H](C)CC2)C2CCN(C(=O)OC3(C)CCN(C(=O)OC(C)(C)C)C3)CC2)c(C(=O)O)s1 (stereo partly drawn) [Compound 71]	95.1%
CC(C)(C)C#Cc1cc(N(C(=O)[C@H]2CC[C@H](C)CC2)C2CCN(C(=O)OC3(C)CCNC3)CC2)c(C(=O)O)s1 (stereo partly drawn) [Compound 72, 4-[[2-Carboxy-5-(3,3-dimethyl-but-1-ynyl)-thiophen-3-yl]-(trans-4-methyl-cyclohexanecarbonyl)-amino]-piperidine-1-carboxylic acid 3-methyl-pyrrolidin-3-yl ester]	99.7%
CC(C)(C)C#Cc1cc(N(C(=O)[C@H]2CC[C@H](C)CC2)C2CCN(C(=O)OC3(C)CN(C(=O)OC(C)(C)C)C3)CC2)c(C(=O)O)s1 [Compound 73, 4-[[2-carboxy-5-(3,3-dimethyl-but-1-ynyl)-thiophen-3-yl]-(trans-4-methyl-cyclohexanecarbonyl)-amino]-piperidine-1-carboxylic acid 1-tert-butoxycarbonyl-3-methyl-azetidin-3-yl ester]	93.1%
CC(C)(C)C#Cc1cc(N(C(=O)[C@H]2CC[C@H](C)CC2)C2CCN(C(=O)OC3CCS(=O)(=O)C3)CC2)c(C(=O)O)s1 (stereo partly drawn) [Compound 74, 4-[[2-carboxy-5-(3,3-dimethyl-but-1-ynyl)-thiophen-3-yl]-(trans-4-methyl-cyclohexanecarbonyl)-amino]-piperidine-1-carboxylic acid 1,1-dioxo-tetrahydro-1λ^6-thiophen-3-yl ester]	99.7%
CC(C)(C)C#Cc1cc(N(C(=O)[C@H]2CC[C@H](C)CC2)C2CCC(NC(=O)OC3(C)CCN(C(=O)OC(C)(C)C)C3)CC2)c(C(=O)O)s1 (stereo partly drawn) [Compound 75]	97.5%
CC(C)(C)C#Cc1cc(N(C(=O)[C@H]2CC[C@H](C)CC2)C2CCC(NC(=O)OC3(C)CCNC3)CC2)c(C(=O)O)s1 (stereo partly drawn) [Compound 76, 5-(3,3-Dimethyl-but-1-ynyl)-3-{(trans-4-cyclohexanecarbonyl)-[4-(3-methyl-pyrrolidin-3-yloxycarbonylamino)-cyclohexyl]-amino}-thiophene-2-carboxylic acid]	99.4%
CC(C)(C)C#Cc1cc(N(C(=O)[C@H]2CC[C@H](C)CC2)C2CCC(NC(=O)OC3CCS(=O)(=O)C3)CC2)c(C(=O)O)s1 (stereo partly drawn) [Compound 77, 5-(3,3-dimethyl-but-1-ynyl)-3-[[4-(1,1-dioxo-tetrahydro-1λ^6-thiophen-3-yloxycarbonylamino)-cyclohexyl]-(trans-4-methylcyclohexanecarbonyl)-amino]-thiophene-2-carboxylic acid]	99.9%
CC1CCC(C(=O)N(c2cc(C#CC(C)(C)C)sc2C(=O)O)C2CCC(NN(C)c3ccccn3)CC2)CC1 (stereo not drawn) [Compound 79, 5-(3,3-Dimethyl-but-1-ynyl)-3-{(4-methyl-cyclohexanecarbonyl)-[4-(N′-methyl-N′-pyridin-2-yl-hydrazino)-cyclohexyl]-amino}-thiophene-2-carboxylic acid]	100%
CN(NC1CCC(N(c2cc(C#CC(C)(C)C)sc2C(=O)O)C(=O)[C@H]2CC[C@H](C)CC2)CC1)c1cnccn1 (stereo partly drawn) [Compound 80, 5-(3,3-Dimethyl-but-1-ynyl)-3-{(4-methyl-cyclohexanecarbonyl)-[4-(N′-methyl-N′-pyrazin-2-yl-hydrazino)-cyclohexyl]-amino}-thiophene-2-carboxylic acid]	99.8%
CC1CCC(C(=O)N(c2cc(C#CC(C)(C)C)sc2C(=O)O)C2CCC(NN(C)c3nccs3)CC2)CC1 (stereo not drawn) [Compound 81, 5-(3,3-Dimethyl-but-1-ynyl)-3-{(4-methyl-cyclohexanecarbonyl)-[4-(N′-methyl-N′-thiazol-2-yl-hydrazino)-cyclohexyl]-amino}-thiophene-2-carboxylic acid]	100%
